Measurements taken from PubChem BioAssay AID2060884 (Molecular Pharmacology Branch, DTP, NCI, 2025).

Tested on: NCI-H929 complex spheroids, viability % test/control
Test: Anticancer human tumor NCI-H929 cell line growth inhibition [RAS];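 also: compound exposure lasted seven days before viability was read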;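 as to viability, T/C: 100% = DMSO vehicle control viability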
Settings: for IC50: curve of first compound; for viability, T/C: stronger effect = lower value; active = viability on the fitted dose curve at most 10% of control; inactive = the rest
In short: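 Agents were tested in combination matrices in half-log decrements from a top concentration at or near clinical Cmax (10 microM if undetermined). Targets were multi-cell spheroids of tumour lines plus HUVEC and MSC stromal cells.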

CC(=O)OC12COC1CC(O)C1(C)C(=O)C(O)C3=C(C)C(OC(=O)C(O)C(NC(=O)OC(C)(C)C)c4ccccc4)CC(O)(C(OC(=O)c4ccccc4)C21)C3(C)C (stereo unspecified) + CCn1c(-c2cc(N3CCN(C)CC3)cnc2C(C)OC)c2c3cc(ccc31)-c1csc(n1)CC(NC(=O)C1CC1C)C(=O)N1CCCC(N1)C(=O)OCC(C)(C)C2
active: viability, T/C (second compound 0.000949 µM, first compound 0.0316 µM) 0.9% | viability, T/C (second compound 0.000949 µM, first compound 0.1 µM) 0.92% | viability, T/C (second compound 0.000949 µM, first compound 0.316 µM) 1.34% | viability, T/C (second compound 0.000949 µM, first compound 1 µM) 1.14% | viability, T/C (second compound 0.000949 µM, first compound 3.16 µM) 1.74% | viability, T/C (second compound 0.000949 µM, first compound 10 µM) 1.22% | viability, T/C (second compound 0.003 µM, first compound 0.0316 µM) 1.12% | viability, T/C (second compound 0.003 µM, first compound 0.1 µM) 1.88% | viability, T/C (second compound 0.003 µM, first compound 0.316 µM) 1.04% | viability, T/C (second compound 0.003 µM, first compound 1 µM) 0.64% | viability, T/C (second compound 0.003 µM, first compound 3.16 µM) 1.46% | viability, T/C (second compound 0.003 µM, first compound 10 µM) 0.97% | viability, T/C (second compound 0.00949 µM, first compound 0.0316 µM) 1.36% | viability, T/C (second compound 0.00949 µM, first compound 0.1 µM) 1.42% | viability, T/C (second compound 0.00949 µM, first compound 0.316 µM) 1.07% | viability, T/C (second compound 0.00949 µM, first compound 1 µM) 1.07% | viability, T/C (second compound 0.00949 µM, first compound 3.16 µM) 0.91% | viability, T/C (second compound 0.00949 µM, first compound 10 µM) 1.16% | viability, T/C (second compound 0.03 µM, first compound 0.0316 µM) 1.81% | viability, T/C (second compound 0.03 µM, first compound 0.1 µM) 0.83% | viability, T/C (second compound 0.03 µM, first compound 0.316 µM) 0.75% | viability, T/C (second compound 0.03 µM, first compound 1 µM) 1.71% | viability, T/C (second compound 0.03 µM, first compound 3.16 µM) 0.99% | viability, T/C (second compound 0.03 µM, first compound 10 µM) 1.17% | viability, T/C (second compound 0.0949 µM, first compound 0.0316 µM) 1.09% | viability, T/C (second compound 0.0949 µM, first compound 0.1 µM) 0.75% | viability, T/C (second compound 0.0949 µM, first compound 0.316 µM) 0.6% | viability, T/C (second compound 0.0949 µM, first compound 1 µM) 0.56% | viability, T/C (second compound 0.0949 µM, first compound 3.16 µM) 1.05% | viability, T/C (second compound 0.0949 µM, first compound 10 µM) 0.51% | viability, T/C (second compound 0.3 µM, first compound 0.0316 µM) 0.99% | viability, T/C (second compound 0.3 µM, first compound 0.1 µM) 0.51% | viability, T/C (second compound 0.3 µM, first compound 0.316 µM) 0.87% | viability, T/C (second compound 0.3 µM, first compound 1 µM) 0.72% | viability, T/C (second compound 0.3 µM, first compound 3.16 µM) 0.64% | viability, T/C (second compound 0.3 µM, first compound 10 µM) 0.46%
< 31.6 nM: IC50 (second compound 0.000949 µM) | IC50 (second compound 0.003 µM) | IC50 (second compound 0.00949 µM) | IC50 (second compound 0.03 µM) | IC50 (second compound 0.0949 µM) | IC50 (second compound 0.3 µM)

CC1(C)CCC(Nc2ncc(C(F)(F)F)c(-c3c[nH]c4c(P(C)(C)=O)c(C#N)ccc34)n2)CN1 (stereo unspecified)
14.5% [middle of 4 runs]: viability, T/C (compound 0.00949 µM)
5.41% [middle of 4 runs]: viability, T/C (compound 0.3 µM)
8.74% [middle of 4 runs]: viability, T/C (compound 0.03 µM)
9.57% [middle of 4 runs]: viability, T/C (compound 0.0949 µM)
